How the values were obtained:
[1] = test system: Rattus norvegicus; test: Toxicity in intragastrically dosed Sprague-Dawley rat assessed as mortality at 2340 umol/kg administered as single dose after 14 days; type: organism-based; conditions: in vivo, po, 336 h
[2] = test system: Rattus norvegicus; test: Anorexic toxicity in intragastrically dosed Sprague-Dawley rat assessed as ratio of body weight change to day of weight change at 780 umol/kg administered as single dose after 14 days; type: organism-based; conditions: in vivo, po, 336 h
[3] = test system: Rattus norvegicus; test: Tmax in intragastrically dosed Sprague-Dawley rat assessed as pyrroloquinazolinediamine level at 47.6 umol/kg administered daily for 3 days measured on day 1; type: ADME, organism-based; conditions: in vivo, po, 72 h
[4] = Toxicity in intragastrically dosed Sprague-Dawley rat; type: organism-based; conditions: in vivo, po
[5] = test system: Rattus norvegicus; test: Cmax in intragastrically dosed Sprague-Dawley rat assessed as pyrroloquinazolinediamine level at 47.6 umol/kg administered daily for 3 days measured on day 3; type: ADME, organism-based; parameters: dose 47.6 umol/kg, route intragastric; conditions: in vivo, po, 72 h
[6] = test system: Rattus norvegicus; test: Anorexic toxicity in intragastrically dosed Sprague-Dawley rat assessed as ratio of body weight change to day of weight change at 23.8 umol/kg administered daily for 3 days measured after 14 days; type: organism-based; conditions: in vivo, po, 336 h
[7] = test system: Rattus norvegicus; test: AUC (0 to infinity) in intragastrically dosed Sprague-Dawley rat assessed as pyrroloquinazolinediamine level at 95 umol/kg administered as single dose; type: ADME, organism-based, Plasma; parameters: dose 95 umol/kg, time infinity, route intragastric; conditions: in vivo, po
[8] = test system: Rattus norvegicus; test: Anorexic toxicity in intragastrically dosed Sprague-Dawley rat assessed as ratio of body weight change to day of weight change at 95 umol/kg administered daily for 3 days measured after 14 days; type: organism-based; conditions: in vivo, po, 336 h
[9] = test system: Rattus norvegicus; test: Tmax in intragastrically dosed Sprague-Dawley rat assessed as pyrroloquinazolinediamine level at 95 umol/kg administered as single dose; type: ADME, organism-based; conditions: in vivo, po
[10] = test system: Rattus norvegicus; test: Elimination half life in intragastrically dosed Sprague-Dawley rat assessed as pyrroloquinazolinediamine level at 47.6 umol/kg administered daily for 3 days measured on day 3; type: ADME, organism-based; conditions: in vivo, po, 72 h
[11] = test system: Rattus norvegicus; test: Tmax in intragastrically dosed Sprague-Dawley rat assessed as pyrroloquinazolinediamine level at 47.6 umol/kg administered daily for 3 days measured on day 3; type: ADME, organism-based; conditions: in vivo, po, 72 h
[12] = test system: Rattus norvegicus; test: Elimination half life in intragastrically dosed Sprague-Dawley rat assessed as pyrroloquinazolinediamine level at 95 umol/kg administered as single dose; type: ADME, organism-based; conditions: in vivo, po
[13] = test system: Rattus norvegicus; test: Cmax in intragastrically dosed Sprague-Dawley rat assessed as pyrroloquinazolinediamine level at 95 umol/kg administered as single dose; type: ADME, organism-based; parameters: dose 95 umol/kg, route intragastric; conditions: in vivo, po
[14] = test system: Rattus norvegicus; test: Bioavailability in intragastrically dosed Sprague-Dawley rat assessed as pyrroloquinazolinediamine level at 47.6 umol/kg administered daily for 3 days measured on day 3; type: ADME, organism-based; conditions: in vivo, po, 72 h
[15] = Toxicity in intragastrically dosed Sprague-Dawley rat assessed as maximum tolerated dose; type: organism-based; conditions: in vivo, po
[16] = test system: Rattus norvegicus; test: Anorexic toxicity in intragastrically dosed Sprague-Dawley rat assessed as ratio of body weight change to day of weight change after 14 days; type: organism-based; conditions: in vivo, po, 336 h
[17] = test system: Rattus norvegicus; test: Bioavailability in intragastrically dosed Sprague-Dawley rat assessed as pyrroloquinazolinediamine level at 95 umol/kg administered as single dose; type: ADME, organism-based; conditions: in vivo, po
[18] = test system: Rattus norvegicus; test: Anorexic toxicity in intragastrically dosed Sprague-Dawley rat assessed as ratio of body weight change to day of weight change at 11.9 umol/kg administered daily for 3 days measured after 14 days; type: organism-based; conditions: in vivo, po, 336 h
[19] = test system: Rattus norvegicus; test: AUC (0 to infinity) in intragastrically dosed Sprague-Dawley rat assessed as pyrroloquinazolinediamine level at 47.6 umol/kg administered daily for 3 days measured on day 3; type: ADME, organism-based, Plasma; parameters: dose 47.6 umol/kg, time infinity, route intragastric; conditions: in vivo, po, 72 h
[20] = test system: Rattus norvegicus; test: Bioavailability in intragastrically dosed Sprague-Dawley rat assessed as pyrroloquinazolinediamine level at 47.6 umol/kg administered daily for 3 days measured on day 1; type: ADME, organism-based; conditions: in vivo, po, 72 h
[21] = test system: Rattus norvegicus; test: Total AUC in intragastrically dosed Sprague-Dawley rat assessed as pyrroloquinazolinediamine level at 47.6 umol/kg administered daily for 3 days measured on day 3; type: ADME, organism-based; parameters: dose 47.6 umol/kg, route intragastric, time AUCmax; conditions: in vivo, po, 72 h
[22] = test system: Rattus norvegicus; test: Cmax in intragastrically dosed Sprague-Dawley rat assessed as pyrroloquinazolinediamine level at 47.6 umol/kg administered daily for 3 days measured on day 1; type: ADME, organism-based; parameters: dose 47.6 umol/kg, route intragastric; conditions: in vivo, po, 72 h
[23] = test system: Rattus norvegicus; test: Anorexic toxicity in intragastrically dosed Sprague-Dawley rat assessed as ratio of body weight change to day of weight change at 47.6 umol/kg administered daily for 3 days measured after 14 days; type: organism-based; conditions: in vivo, po, 336 h
[24] = test system: Rattus norvegicus; test: Anorexic toxicity in intragastrically dosed Sprague-Dawley rat assessed as ratio of body weight change to day of weight change at 1170 umol/kg administered as single dose after 14 days; type: organism-based; conditions: in vivo, po, 336 h
[25] = test system: Rattus norvegicus; test: Elimination half life in intragastrically dosed Sprague-Dawley rat assessed as pyrroloquinazolinediamine level at 47.6 umol/kg administered daily for 3 days measured on day 1; type: ADME, organism-based; conditions: in vivo, po, 72 h
[26] = test system: Rattus norvegicus; test: AUC (0 to infinity) in intragastrically dosed Sprague-Dawley rat assessed as pyrroloquinazolinediamine level at 47.6 umol/kg administered daily for 3 days measured on day 1; type: ADME, organism-based, Plasma; parameters: dose 47.6 umol/kg, time infinity, route intragastric; conditions: in vivo, po, 72 h
[27] = test system: Rattus norvegicus; test: Anorexic toxicity in intragastrically dosed Sprague-Dawley rat assessed as ratio of body weight change to day of weight change at 195 umol/kg administered as single dose after 14 days; type: organism-based; conditions: in vivo, po, 336 h
[28] = test system: Rattus norvegicus; test: Elimination half life in intragastrically dosed Sprague-Dawley rat assessed as bisacetamide pyrroloquinazolinediamine level at 95 umol/kg administered as single dose; type: ADME, organism-based; conditions: in vivo, po
[29] = test system: Rattus norvegicus; test: Toxicity in intragastrically dosed Sprague-Dawley rat at 2340 umol/kg; type: organism-based; conditions: in vivo, po
[30] = test system: Rattus norvegicus; test: AUC in intragastrically dosed Sprague-Dawley rat assessed as bisacetamide pyrroloquinazolinediamine level at 95 umol/kg administered as single dose; type: ADME, organism-based, Plasma; conditions: in vivo, po
[31] = test system: Plasma; test: Metabolic stability in Sprague-Dawley rat plasma assessed as formation of pyrroloquinazolinediamine after 30 mins; type: ADME, cell-free; conditions: 0.5 h
[32] = test system: Rattus norvegicus; test: Anorexic toxicity in intragastrically dosed Sprague-Dawley rat assessed as ratio of body weight change to day of weight change at 1560 umol/kg administered as single dose after 14 days; type: organism-based; conditions: in vivo, po, 336 h
[33] = test system: Rattus norvegicus; test: Anorexic toxicity in intragastrically dosed Sprague-Dawley rat assessed as ratio of body weight change to day of weight change at 2340 umol/kg administered as single dose after 14 days; type: organism-based; conditions: in vivo, po, 336 h
[34] = test system: Rattus norvegicus; test: AUC in intragastrically dosed Sprague-Dawley rat assessed as monoacetamide pyrroloquinazolinediamine level at 95 umol/kg administered as single dose; type: ADME, organism-based, Plasma; conditions: in vivo, po
[35] = test system: Rattus norvegicus; test: Anorexic toxicity in intragastrically dosed Sprague-Dawley rat assessed as ratio of body weight change to day of weight change at 190 umol/kg administered daily for 3 days measured after 14 days; type: organism-based; conditions: in vivo, po, 336 h
[36] = test system: Rattus norvegicus; test: Elimination half life in intragastrically dosed Sprague-Dawley rat assessed as monoacetamide pyrroloquinazolinediamine level at 95 umol/kg administered as single dose; type: ADME, organism-based; conditions: in vivo, po
[37] = test system: Rattus norvegicus; test: Metabolic stability in intragastrically dosed Sprague-Dawley rat assessed as formation of pyrroloquinazolinediamine; type: ADME, organism-based; conditions: in vivo, po

SMILES | Ratio [2] | Tmax [3] | Cmax [5] | Ratio [6] | AUC [7] | Ratio [8] | Tmax [9] | t1/2 [10] | Tmax [11] | t1/2 [12] | Cmax [13] | F [14] | MTD [15] | ID50 [16] | F [17] | Ratio [18] | AUC [19] | F [20] | AUC [21] | Cmax [22] | other results
CCOC(=O)Nc1nc(NC(=O)OCC)c2c(ccc3c2ccn3Cc2ccccc2C(F)(F)F)n1 | 2.21 | 3 h | 63.36 ng/mL | 1.88 | 1381.4 ng·h/mL | -0.65 | 3.83 h | 16.93 h | 3.33 h | 13.59 h | 108.7 ng/mL | 31.06% | 1170 µmol/kg | 60.65 µmol/kg | 14.86% | 2.42 | 1529.6 ng·h/mL | 20.45% | 2856.1 ng·h/mL | 59.46 ng/mL | Activity [1]: Toxic; LD50 [4]: 1570 µmol/kg; Ratio [23]: 0.71; Ratio [24]: 0.84; t1/2 [25]: 13.29 h; AUC [26]: 875.5 ng·h/mL; Ratio [27]: 2.49
CC(=O)N(C(C)=O)c1nc(N(C(C)=O)C(C)=O)c2c(ccc3c2ccn3Cc2ccccc2C(F)(F)F)n1 | 2.47 | 7 h | 30.84 ng/mL | 2.61 | 1047.3 ng·h/mL | 1.18 | 5.33 h | 17.66 h | 5.67 h | 13.2 h | 60.5 ng/mL | 26.96% | 2340 µmol/kg | 140.43 µmol/kg | 11.45% | 2.46 | 1250.1 ng·h/mL | 16.49% | 1903.5 ng·h/mL | 31.23 ng/mL | t1/2 [28]: 12.64 h; Activity [29]: Non-toxic; AUC [30]: 24.9 ng·h/mL; Activity [31]: 49%; Ratio [32]: 2.08; Ratio [23]: 2.06; Ratio [24]: 2.76; t1/2 [25]: 12.86 h; AUC [26]: 705.9 ng·h/mL; Ratio [33]: 1.03; AUC [34]: 176.5 ng·h/mL; Ratio [27]: 2.55; Ratio [35]: -0.89; t1/2 [36]: 13.16 h; Activity [37]: 84%

— ChEMBL document CHEMBL1155774, “Pharmacokinetics, safety, and hydrolysis of oral pyrroloquinazolinediamines administered in single and multiple doses in rats” (Antimicrob Agents Chemother, 2007)
